Legend:
Assay in all cases: Transient transfection (transactivation) assay in CV-1 cells, GAL4-PPAR chimera, luciferase reporter
Assay type in all cases: cell-based
PPAR alpha = molecular target: T1, PPAR alpha (Homo sapiens, UniProt Q07869)
T1 construct: expressed in transfected cells; host or cells: CV-1 cells
T1 sequence (Q07869 239-466 limits assumed): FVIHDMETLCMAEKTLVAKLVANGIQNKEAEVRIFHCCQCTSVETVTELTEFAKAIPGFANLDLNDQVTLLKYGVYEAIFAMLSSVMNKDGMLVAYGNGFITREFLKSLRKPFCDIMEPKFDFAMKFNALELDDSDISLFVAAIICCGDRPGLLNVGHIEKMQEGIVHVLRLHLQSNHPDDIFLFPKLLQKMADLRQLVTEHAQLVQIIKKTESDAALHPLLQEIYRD
Excerpt: Compounds may be screened for functional potency in transient transfection assays in CV-1 cells or other cell types for their ability to activate the PPAR subtypes (transactivation assay). A previously established chimeric receptor system was utilized to allow comparison of the relative transcriptional activity of the receptor subtypes on the same synthetic response element and to prevent endogenous receptor activation from complicating the interpretation of results. See, for example; Lehmann, J. M.; Moore, L. B.; Smith-Oliver, T. A; Wilkinson, W. O.; Willson, T. M.; Kliewer, S. A., An antidiabetic thiazolidinedione is a high affinity ligand for peroxisome proliferatur-activated receptor γ (PPARγ), J. Biol. Chem., 1995, 270, 12953-6. The ligand binding domains for murine and human PPAR-alpha, PPAR-gamma, and PPAR-delta are each fused to the yeast transcription factor GAL4 DNA binding domain. CV-1 cells were transiently transfected with expression vectors for the respective PPAR chimera along with a reporter construct containing four or five copies of the GAL4 DNA binding site driving expression of luciferase. After 8-16 h, the cells are replated into multi-well assay plates and the media is exchanged to phenol-red free DME medium supplemented with 5% delipidated calf serum. 4 hours after replating, cells were treated with either compounds or 1% DMSO for 20-24 hours. Luciferase activity was then assayed with Britelite (Perkin Elmer) following the manufacturer's protocol and measured with either the Perkin Elmer Viewlux or Molecular Devices Acquest Xsee, for example, Kliewer, S. A., et. al. Cell 1995, 83, 813-819). Rosiglitazone is used as a positive control in the hPPAR-γ assay. Wy-14643 and GW7647 is used as a positive control in the hPPAR-α assay. GW501516 is used as the positive control in the hPPAR-δ assay.
Compounds of Examples 1-233 were assayed to measure their biological activity with respect to their EC50 values and efficacy for modulating PPAR-alpha, PPAR-gamma, and PPAR-delta as set forth in Table 3.

PPAR gamma = molecular target: T2, PPAR gamma (Homo sapiens, UniProt P37231)
T2 construct: expressed in transfected cells; host or cells: CV-1 cells
T2 sequence (P37231 238-503 limits assumed): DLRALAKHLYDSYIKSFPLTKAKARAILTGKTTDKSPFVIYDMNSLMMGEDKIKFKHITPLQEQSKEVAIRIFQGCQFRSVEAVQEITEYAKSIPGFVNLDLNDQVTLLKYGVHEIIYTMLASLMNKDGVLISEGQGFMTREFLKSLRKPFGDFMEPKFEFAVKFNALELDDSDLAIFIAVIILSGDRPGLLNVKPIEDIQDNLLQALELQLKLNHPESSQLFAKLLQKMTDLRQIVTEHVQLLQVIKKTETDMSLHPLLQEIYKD

PPAR delta = molecular target: T3, PPAR delta (Homo sapiens, UniProt Q03181)
T3 construct: expressed in transfected cells; host or cells: CV-1 cells
T3 sequence (Q03181 211-439 limits assumed): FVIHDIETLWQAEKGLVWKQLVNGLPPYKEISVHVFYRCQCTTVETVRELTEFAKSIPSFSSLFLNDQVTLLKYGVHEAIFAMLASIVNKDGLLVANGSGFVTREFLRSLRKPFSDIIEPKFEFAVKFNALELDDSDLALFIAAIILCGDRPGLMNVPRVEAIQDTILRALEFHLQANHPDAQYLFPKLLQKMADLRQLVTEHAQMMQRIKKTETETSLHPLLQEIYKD

Row | EC50 (PPAR alpha) | EC50 (PPAR gamma) | EC50 (PPAR delta) | Compound
1 | > 100 µM | 5 to 100 µM | < 5 µM | Cc1ccc(S(=O)(=O)N2C[C@H](C)N(c3ccc(C(F)(F)F)cn3)C[C@H]2C)cc1CC(=O)O (mixture of isomers) [Example 21, SR and RS-{5-[2,5-Dimethyl-4-(5-trifluoromethyl-pyridin-2-yl)-piperazine-1-sulfonyl]-2-methyl-phenyl}-acetic acid]
2 | 5 to 100 µM | < 5 µM | < 5 µM | Cc1ccc(S(=O)(=O)N2CCN(c3ccc(C(F)(F)F)cn3)[C@@H](C)[C@H]2C)cc1CC(=O)O (mixture of isomers) [Example 104, RS and SR-{5-[2,3-Dimethyl-4-(5-trifluoromethyl-pyridin-2-yl)-piperazine-1-sulfonyl]-2-methyl-phenyl}-acetic acid]
3 | > 100 µM | > 100 µM | < 5 µM | Cc1cc(CC(=O)O)cc(S(=O)(=O)N2CCN(c3ccc(C(F)(F)F)cn3)[C@@H](C)[C@H]2C)c1 (mixture of isomers) [Example 106, RS and SR-{3-[2,3-Dimethyl-4-(5-trifluoromethyl-pyridin-2-yl)-piperazine-1-sulfonyl]-5-methyl-phenyl}-acetic acid]
4 | > 100 µM | < 5 µM | < 5 µM | C[C@@H]1[C@H](C)N(c2ccc(C(F)(F)F)cn2)CCN1S(=O)(=O)c1cccc(CC(=O)O)c1 (racemic) [Example 105, RS and SR-{3-[2,3-Dimethyl-4-(S-trifluoromethyl-pyridin-2-yl)-piperazine-1-sulfonyl]-phenyl}-acetic acid]
5 | 5 to 100 µM | < 5 µM | < 5 µM | Cc1ccc(S(=O)(=O)N2CCN(c3ccc(C(F)(F)F)cn3)[C@H](C)C2)cc1CC(=O)O (single isomer, unassigned) [Example 69]
6 | > 100 µM | > 100 µM | < 5 µM | Cc1ccc(CC(=O)O)cc1S(=O)(=O)N1CCC(c2ccc(Cl)cc2)CC1 [Example 1]
7 | > 100 µM | > 100 µM | 5 to 100 µM | Cc1ccc(S(=O)(=O)N2CCC(c3ccc(Cl)cc3)CC2)cc1CC(=O)O [Example 2, {5-[4-(4-Chlorophenyl)-piperidine-1-sulfonyl]-2-methyl-phenyl}-acetic acid]
8 | 5 to 100 µM | 5 to 100 µM | < 5 µM | O=C(O)Cc1cccc(S(=O)(=O)N2CCN(c3ccc(C(F)(F)F)cc3)CC2)c1 [Example 3, {3-[4-(4-Trifluoromethyl-phenyl)-piperazine-1-sulfonyl]-phenyl}-acetic acid]
9 | 5 to 100 µM | 5 to 100 µM | < 5 µM | O=C(O)Cc1cccc(S(=O)(=O)N2CCN(c3ccc(C(F)(F)F)cn3)CC2)c1 [Example 4, {3-[4-(5-Trifluoromethyl-pyridin-2-yl)-piperazine-1-sulfonyl]-phenyl}-acetic acid]
10 | > 100 µM | 5 to 100 µM | < 5 µM | Cc1ccc(S(=O)(=O)N2CCCN(c3ccc(C(F)(F)F)cc3)CC2)cc1CC(=O)O [Example 5, {2-Methyl-5-[4-(4-trifluoromethyl-phenyl)-[1,4]diazepane-1-sulfonyl]-phenyl}-acetic acid]
11 | 5 to 100 µM | 5 to 100 µM | < 5 µM | Cc1ccc(S(=O)(=O)N2CCN(c3ccc(C(F)(F)F)cn3)CC2C(C)C)cc1CC(=O)O (stereo not drawn) [Example 6, {5-[2-Isopropyl-4-(5-trifluoromethyl-pyridin-2-yl)-piperazine-1-sulfonyl]-2-methyl-phenyl}-acetic acid]
12 | 5 to 100 µM | 5 to 100 µM | < 5 µM | CCC1CN(c2ccc(C(F)(F)F)cn2)CCN1S(=O)(=O)c1ccc(C)c(CC(=O)O)c1 (stereo not drawn) [Example 7, {5-[2-Ethyl-4-(5-trifluoromethyl-pyridin-2-yl)-piperazine-1-sulfonyl]-2-methyl-phenyl)-acetic acid]
13 | 5 to 100 µM | < 5 µM | < 5 µM | Cc1ccc(S(=O)(=O)N2CCCN(c3ccc(C(F)(F)F)cn3)CC2)cc1CC(=O)O [Example 8, {2-Methyl-5-[4-(5-trifluoromethyl-pyridin-2-yl)-[1,4]diazepane-1-sulfonyl]-phenyl}-acetic acid]
14 | < 5 µM | < 5 µM | < 5 µM | Cc1ccc(S(=O)(=O)N2CCCN(c3ncc(C(F)(F)F)cc3Cl)CC2)cc1CC(=O)O [Example 9]
15 | > 100 µM | > 100 µM | 5 to 100 µM | Cc1ccc(S(=O)(=O)N2C[C@@H]3C[C@H]2CN3c2cccc(F)c2)cc1CC(=O)O [Example 10, S,S-{5-[4-(3-Fluorophenyl)-2,5-diaza-bicyclo[2.2.1]heptane-1-sulfonyl]-2-methyl-phenyl}acetic acid]
16 | > 100 µM | > 100 µM | 5 to 100 µM | Cc1ccc(S(=O)(=O)N2C[C@@H]3C[C@H]2CN3c2ccc(F)cc2)cc1CC(=O)O [Example 11]
17 | > 100 µM | 5 to 100 µM | 5 to 100 µM | Cc1ccc(S(=O)(=O)N2CCCN(c3ncccc3C(F)(F)F)CC2)cc1CC(=O)O [Example 12, {2-Methyl-5-[4-(3-trifluoromethyl-pyridin-2-yl)-[1,4]diazepane-1-sulfonyl]-phenyl}-acetic acid]
18 | > 100 µM | > 100 µM | 5 to 100 µM | Cc1ccc(S(=O)(=O)N2CCCN(c3ccncc3)CC2)cc1CC(=O)O [Example 13]
19 | 5 to 100 µM | 5 to 100 µM | < 5 µM | Cc1ccc(S(=O)(=O)N2CCCC(c3ccc(C(F)(F)F)cc3)C2)cc1CC(=O)O (stereo not drawn) [Example 15, {2-Methyl-5-[3-(4-trifluoromethyl-phenyl)-piperidine-1-sulfonyl]-phenyl}-acetic acid]
20 | > 100 µM | < 5 µM | 5 to 100 µM | Cc1ccc(S(=O)(=O)N2CCCC(c3cccc(C(F)(F)F)c3)C2)cc1CC(=O)O (stereo not drawn) [Example 16, {2-Methyl-5-[3-(3-trifluoromethyl-phenyl)-piperidine-1-sulfonyl]-phenyl}-acetic acid]
21 | 5 to 100 µM | 5 to 100 µM | < 5 µM | Cc1ccc(S(=O)(=O)N2CCN(c3nc4ccccc4o3)CC2)cc1CC(=O)O [Example 17, [5-(4-Benzoxazol-2-yl-piperazine-1-sulfonyl)-2-methyl-phenyl]-acetic acid]
22 | < 5 µM | < 5 µM | < 5 µM | Cc1ccc(S(=O)(=O)N2CCN(c3nc4ccccc4s3)CC2)cc1CC(=O)O [Example 18, [5-(4-Benzothiazol-2-yl-piperazine-1-sulfonyl)-2-methyl-phenyl]-acetic acid]
23 | 5 to 100 µM | 5 to 100 µM | < 5 µM | Cc1ccc(S(=O)(=O)N2CCN(c3ccc(C(F)(F)F)cn3)CC2C)cc1CC(=O)O (stereo not drawn) [Example 19]
24 | > 100 µM | > 100 µM | < 5 µM | Cc1ccc(S(=O)(=O)N2[C@H](C)CN(c3ccc(C(F)(F)F)cn3)C[C@@H]2C)cc1CC(=O)O [Example 20, {5-[2,6-Dimethyl-4-(5-trifluoromethyl-pyridin-2-yl)-piperazine-1-sulfonyl]-2-methyl-phenyl}-acetic acid]
25 | 5 to 100 µM | < 5 µM | < 5 µM | Cc1cc(CC(=O)O)cc(S(=O)(=O)N2CCN(c3ncc(C(F)(F)F)cc3Cl)CC2)c1 [Example 22, {5-Methyl-3-[4-(3-chloro-5-trifluoromethyl-pyridin-2-yl)-piperazine-1-sulfonyl]-phenyl)-acetic acid]
